The subject of experiment [1] is growth hormone (GH) production. Nature of the experiment: GH production suppression test with rats. Format: in vivo. Particulars: Table 7 (Example 86), subcutaneous, 1 hour before GRF, plasma GH 5 minutes after GRF, vehicle 861.
Description: This experimental line was carried out as a test line that can evaluate the pharmacological action of the glycosylated form on SSTR and its residence in blood after administration, with blood GH production amount as an indicator.
Moreover, GRF (GH releasing hormone, Growth hormone releasing factor) was used as the GH release enhancer. […] As heparin employed as the anticoagulant when collecting blood, Japanese Pharmacopeia heparin sodium injectable solution (Lot. B084, from Mochida Pharmaceutical Co., Ltd.) was used directly as stock solution.
As the control group, saline without glycosylated polypeptide was similarly administered (vehicle group). […] One hour after administration of the glycosylated form, i.e. after 50 minutes or more had passed under anesthesia, GRF was administered as the GH release enhancer to the tail vain at a dosage of 1 mL/kg with a glass syringe and an injection needle. Five minutes after administration of GRF, blood was collected from the rat cervical vein with a glass syringe containing heparin and an injection needle. 0.4 mL of the collected blood was left on ice for 20 minutes or more, then centrifuged (1,870×g, 4° C., 10 minutes), and 100 μL of the supernatant was taken as the plasma sample. As blank plasma, plasma obtained by similarly treating the blood collected from untreated rat cervical vein was employed. Plasma samples were frozen in storage until employed for measurement.
The plasma sample was diluted with the assay buffer supplied in the EIA kit to 20, 100, and 500-folds as measurement samples. […] By multiplying the results obtained and the dilution ratio, the GH concentration was calculated.
The test system of experiment [2] is rat gastrointestinal obstruction model. Nature of the experiment: Gastrointestinal obstruction model: blood parameters (amylase, LDH, CPK). Particulars: Table 10; blood 1 hour after subcutaneous administration.
Description: (§1) This experimental line was carried out as a test line to evaluate the promotion of intestinal fluid absorption or the secretory suppressing action, using the change in the intestinal fluid weight in the jejunum after bowel obstruction as an indicator. Moreover, blood parameters of deviation enzymes amylase (pancreas), lactate dehydrogenase (LDH, liver), and creatine phosphokinase (CPK, skeletal muscle, cardiac muscle etc.) were measured as indicators of tissue disorders.
Anesthesia was introduced with inhalation of 2% isoflurane and laughing gas:oxygen=7:3, and this was maintained throughout the surgery. A median incision was made in the abdomen, and the jejunum at about 10 cm from the musculus suspensorius duodeni was ligated with a surgical suture. Then, the incision site was promptly sutured, and the rats were fasted until compound administration. In the sham treatment group, ligation of the jejunum was not performed, but the treatment of suturing the incision site after a median incision was made in the abdomen was performed.
Eighteen hours after the gastrointestinal obstruction surgery, this was subcutaneously administered into the dorsal cervix at a dosage of 1 mL/kg with a glass syringe and a 25 G injection needle (all from Terumo Corporation). As the vehicle group, saline without glycosylated polypeptide was similarly administered.
One hour after compound administration, a median incision was made in the abdomen under inhalation anesthesia, and 1.5 mL of blood was collected from the abdominal vena cava. Then, the ligated jejunum on the musculus suspensorius duodeni side was resected. The fluid and blood on the jejunum surface were removed with a paper towel, nerves, blood vessels, and fat attached to the jejunum was removed, this was cut into 6 cm lengths, and wet weight was measured. This was then dried at 36 degrees for 24 hours, and dry weight was measured.
The measuring methods employed were BG5B, UV-rate, and JSCC methods, respectively.
Experiment [3] has the same test system. Nature of the experiment: Gastrointestinal obstruction model: intestinal fluid weight. Format: in vivo, rats. Conditions: Table 9; jejunum, 1 hour after subcutaneous administration of 40 μM solution at 1 mL/kg, 18 hours after ligation.
Description: as §1
Anesthesia was introduced with inhalation of 2% isoflurane and laughing gas:oxygen=7:3, and this was maintained throughout the surgery. A median incision was made in the abdomen, and the jejunum at about 10 cm from the musculus suspensorius duodeni was ligated with a surgical suture. Then, the incision site was promptly sutured, and the rats were fasted until compound administration. […]
One hour after compound administration, a median incision was made in the abdomen under inhalation anesthesia, and 1.5 mL of blood was collected from the abdominal vena cava. […] The fluid and blood on the jejunum surface were removed with a paper towel, nerves, blood vessels, and fat attached to the jejunum was removed, this was cut into 6 cm lengths, and wet weight was measured. This was then dried at 36 degrees for 24 hours, and dry weight was measured.

Consider 29C(disialo)-SRIF28 [Example 13], for which the “GH” value came out at 497 ng/mL in experiment [1] (dose 10 nmol/kg) and 88.5 ng/mL in experiment [1] (dose 100 nmol/kg).
As to S1C(disialo)-SRIF28 [Example 1], in experiment [2], the “amylase activity compared to the vehicle (in words)” value was “low value compared to the vehicle”.
As to `C[C@@H](O)[C@@H]1NC(=O)[C@H](CCCCN)NC(=O)[C@@H](Cc2c[nH]c3ccccc23)NC(=O)[C@H](Cc2ccccc2)NC(=O)[C@@H](NC(=O)[C@H](N)Cc2ccccc2)CSSC[C@@H](C(=O)N[C@H](CO)[C@@H](C)O)NC1=O` [Octreotide, reference compound], the “Intestinal fluid weight” value in experiment [3] stood at 693 ± 48 mg.
For the compound S1-2C(asialo)-SRIF28 [Example 28], the “Intestinal fluid weight” value in experiment [3] is listed as 566 ± 34 mg.
For C(disialo)-R-K-SRIF14 [Example 18], in experiment [2], the “LDH activity compared to the vehicle (in words)” value is recorded as “low value compared to the vehicle” and the “amylase activity compared to the vehicle (in words)” value is given as “low value compared to the vehicle”.
N19C(disialo)-SRIF28 [Example 10]: the “GH” value is given as 563 ng/mL in experiment [1] (dose 10 nmol/kg) and 1.5 ng/mL in experiment [1] (dose 100 nmol/kg).

These data come from patent US20170157260A1, “Glycosylated Polypeptide and Drug Composition Containing said Polypeptide” (Glytech, Inc., priority 2011, published 2017).
